The values below come from patent US8252895B2, “Cyclic peptide compounds” (Astellas Pharma Inc., priority 2005, dated 2012).

Square brackets hold non-standard residues; d marks the D form. Peptide text beside a SMILES is read from it. * marks the point of attachment. ξ: configuration not given here. MeBmt = C/C=C/C[C@@H](C)[C@@H](O)[C@H](NC)C(=O)O; NMeIle(3ξ) = CCC(C)[C@H](NC)C(=O)O; NMeThr(3ξ) = CN[C@H](C(=O)O)C(C)O; NMePhg = CN[C@H](C(=O)O)c1ccccc1; NMeT = CN[C@H](C(=O)O)[C@@H](C)O; NMeL = CN[C@@H](CC(C)C)C(=O)O; dNMeAbu = CC[C@@H](NC)C(=O)O; NMeV = CN[C@H](C(=O)O)C(C)C; dNMeS = CN[C@H](CO)C(=O)O; dNMeA = CN[C@H](C)C(=O)O; Sar = CNCC(=O)O; tBu = CC(C)(C)*

One experiment deals with HCV. The following applies: K. Inoue et al., 6th International Symposium on Hepatitis C and Related Virus (2000); cited from earlier work.
Regarding Cyclosporin A, the anti-HCV activity entry was “anti-HCV activity”.

The target in another experiment is HCV replicon. Type of experiment: cell-based, hepatitis C virus. The following applies: HCV replicon cells, luciferase activity two days after addition of compound, 50% of control (DMSO only). The method, then:
It is thought that the replication mechanism of the subgenomic HCV RNA in these cell lines is extremely similar to the replication of full length HCV RNA genome in hepatic cells infected with HCV.
The inhibitory activity of the test compounds against the replication of HCV replicon was evaluated by quantified the activity of luciferase, a reporter gene product encoded in the replicon system reported by Yokota et al., EMBO 4: 602-608 (2003). The enzyme assay was carried out according to the technical manual of the Steady-Glo® luciferase assay system (Promega). The replicon assay was carried out with the modified method reported by Lohmann et al., Science 285: 110 (1999). The details are described in the following.
6×10^3 HCV replicon cells in D-MEM medium containing 5% fetal bovine serum were seeded in each well of a 96-well microtiter plate (Corning Inc.). After the cells were incubated at 37° C. for 16 hours in 5% CO2, the test compound was added.
After cultivation for two more days, the culture medium was removed and 25 μl of Glo Lysis buffer was added to each well and incubated for 5 minutes. Allowing lysis to occur, 25 μl of Steady-Glo® assay reagent was added to each well. After incubation for 5 minutes, the luminescence was measured with a luminometer, Mithras LB940 (BERTHOLD TECHNOLOGIES GmbH & Co.KG) following the manufacturer's instructions.
The luciferase activities in replicon cells treated at each concentrations of the compound were employed for the calculation of EC50 value of the each compound, which gave the compound concentration indicating 50% enzyme activity level to the control (no drug group, containing only DMSO).
(In general: In antiviral work, replicon cells carry a viral genome segment that copies itself.)
For the compound `C/C=C/C[C@@H](C)[C@@H](O)[C@H]1C(=O)N[C@@H]([C@@H](C)O)C(=O)N(C)[C@H](COC)C(=O)N(C)[C@@H]([C@@H](C)OC)C(=O)N[C@@H](CC(C)C)C(=O)N(C)[C@@H](CC(C)C)C(=O)N[C@@H](C)C(=O)N[C@H](C)C(=O)N(C)[C@@H](CC(C)C)C(=O)N[C@@H](CC(C)C)C(=O)N(C)[C@@H](C(C)C)C(=O)N1C` [Example 9] (cyclo(A[dA][NMeL]L[NMeV][MeBmt]T[dNMeS](Me)[NMeT](Me)L[NMeL])), the “HCV replicon replication inhibitory activity: EC50” value was under 0.5 µg/mL.
On the same count and under the same terms, under `C/C=C/C[C@@H](C)[C@@H](O)[C@H]1C(=O)N[C@@H]([C@@H](C)O)C(=O)N(C)[C@H](C)C(=O)N(C)[C@@H](C(C)O)C(=O)N[C@@H](CC(C)C)C(=O)N(C)[C@@H](CC(C)C)C(=O)N[C@@H](C)C(=O)N[C@H](C)C(=O)N(C)[C@@H](CC(C)C)C(=O)N[C@@H](CC(C)C)C(=O)N(C)[C@@H](C(C)C)C(=O)N1C` (stereo partly drawn) [Example 12, (3R,6S,9S,12S,15S,18S,21R,24S,27S,30S,33S)-6-[(1R)-1-hydroxyethyl]-33-(1-hydroxyethyl)-9-[(1R,2R,4E)-1-hydroxy-2-methyl-4-hexen-1-yl]-15,18,27,30-tetraisobutyl-12-isopropyl-1,3,4,10,13,19,21,24,28-nonamethyl-1,4,7,10,13,16,19,22,25,28,31-undecaazacyclotritriacontane-2,5,8,11,14,17,20,23,26,29,32-undecone] (cyclo(A[dA][NMeL]L[NMeV][MeBmt]T[dNMeA][NMeThr(3ξ)]L[NMeL])) stands under 0.5 µg/mL; under `C/C=C/C[C@@H](C)[C@@H](O)[C@H]1C(=O)N[C@@H]([C@@H](C)O)C(=O)N(C)[C@H](C)C(=O)N(C)[C@@H](C(C)CC)C(=O)N[C@@H](CC(C)C)C(=O)N(C)[C@@H](CC(C)C)C(=O)N[C@@H](C)C(=O)N[C@H](C)C(=O)N(C)[C@@H](CC(C)C)C(=O)N[C@@H](CC(C)C)C(=O)N(C)[C@@H](C(C)C)C(=O)N1C` (stereo partly drawn) [Example 14, (3R,6S,9S,12S,15S,18S,21R,24S,27S,30S,33S)-33-sec-butyl-6-[(1R)-1-hydroxyethyl]-9-[(1R,2R,4E)-1-hydroxy-2-methyl-4-hexen-1-yl]-15,18,27,30-tetraisobutyl-12-isopropyl-1,3,4,10,13,19,21,24,28-nonamethyl-1,4,7,10,13,16,19,22,25,28,31-undecaazacyclotritriacontane-2,5,8,11,14,17,20,23,26,29,32-undecone] (cyclo(A[dA][NMeL]L[NMeV][MeBmt]T[dNMeA][NMeIle(3ξ)]L[NMeL])), under 0.5 µg/mL; under `C/C=C/C[C@@H](C)[C@@H](O)[C@H]1C(=O)N[C@@H]([C@@H](C)O)C(=O)N(C)[C@H](C)C(=O)N(C)[C@@H](c2ccccc2)C(=O)N[C@@H](CC(C)C)C(=O)N(C)[C@@H](CC(C)C)C(=O)N[C@@H](C)C(=O)N[C@H](C)C(=O)N(C)[C@@H](CC(C)C)C(=O)N[C@@H](CC(C)C)C(=O)N(C)[C@@H](C(C)C)C(=O)N1C` [Example 15] (cyclo(A[dA][NMeL]L[NMeV][MeBmt]T[dNMeA][NMePhg]L[NMeL])), under 0.5 µg/mL.
On the same count and under the same terms, under `C/C=C/C[C@@H](C)[C@@H](O)[C@H]1C(=O)N[C@@H]([C@@H](C)O)C(=O)N(C)[C@H](CC)C(=O)N(C)[C@@H]([C@@H](C)OC)C(=O)N[C@@H](CC(C)C)C(=O)N(C)[C@@H](CC(C)C)C(=O)N[C@@H](C)C(=O)N[C@H](C)C(=O)N(C)[C@@H](CC(C)C)C(=O)N[C@@H](CC(C)C)C(=O)N(C)[C@@H](C(C)C)C(=O)N1C` [Example 16] (cyclo(A[dA][NMeL]L[NMeV][MeBmt]T[dNMeAbu][NMeT](Me)L[NMeL])) stands under 0.5 µg/mL; under `C/C=C/C[C@@H](C)[C@@H](O)[C@H]1C(=O)N[C@@H]([C@@H](C)O)C(=O)N(C)[C@H](C)C(=O)N(C)[C@@H](C(C)OC(C)(C)C)C(=O)N[C@@H](CC(C)C)C(=O)N(C)[C@@H](CC(C)C)C(=O)N[C@@H](C)C(=O)N[C@H](C)C(=O)N(C)[C@@H](CC(C)C)C(=O)N[C@@H](CC(C)C)C(=O)N(C)[C@@H](C(C)C)C(=O)N1C` (stereo partly drawn) [Example 25, (3R,6S,9S,12S,15S,18S,21R,24S,27S,30S,33S)-33-(1-tert-butoxyethyl)-6-[(1R)-1-hydroxyethyl]-9-[(1R,2R,4E)-1-hydroxy-2-methyl-4-hexen-1-yl]-15,18,27,30-tetraisobutyl-12-isopropyl-1,3,4,10,13,19,21,24,28-nonamethyl-1,4,7,10,13,16,19,22,25,28,31-undecaazacyclotritriacontane-2,5,8,11,14,17,20,23,26,29,32-undecone] (cyclo(A[dA][NMeL]L[NMeV][MeBmt]T[dNMeA][NMeThr(3ξ)](tBu)L[NMeL])), under 0.5 µg/mL; under `C/C=C/C[C@@H](C)[C@@H](O)[C@H]1C(=O)N[C@@H]([C@@H](C)O)C(=O)N(C)[C@H](C)C(=O)N(C)[C@@H]([C@@H](C)OC)C(=O)N[C@@H](CC(C)C)C(=O)N(C)[C@@H](CC(C)C)C(=O)N[C@@H](C)C(=O)N[C@H](C)C(=O)N(C)[C@@H](CC(C)C)C(=O)N[C@@H](CC(C)C)C(=O)N(C)[C@@H](C(C)C)C(=O)N1C` [Example 32] (cyclo(A[dA][NMeL]L[NMeV][MeBmt]T[dNMeA][NMeT](Me)L[NMeL])), under 0.5 µg/mL.
On the same count and under the same terms, under `C/C=C/C[C@@H](C)[C@@H](O)[C@H]1C(=O)N[C@@H]([C@@H](C)O)C(=O)N(C)CC(=O)N(C)[C@@H](C(C)OC(C)(C)C)C(=O)N[C@@H](CC(C)C)C(=O)N(C)[C@@H](CC(C)C)C(=O)N[C@@H](C)C(=O)N[C@H](C)C(=O)N(C)[C@@H](CC(C)C)C(=O)N[C@@H](CC(C)C)C(=O)N(C)[C@@H](C(C)C)C(=O)N1C` (stereo partly drawn) [Example 52, (3S,6S,9S,12R,15S,18S,21S,24S,30S,33S)-24-(1-tert-butoxyethyl)-30-[(1R)-1-hydroxyethyl]-33-[(1R,2R,4E)-1-hydroxy-2-methyl-4-hexen-1-yl]-6,9,18,21-tetraisobutyl-3-isopropyl-1,4,10,12,15,19,25,28-octamethyl-1,4,7,10,13,16,19,22,25,28,31-undecaazacyclotritriacontane-2,5,8,11,14,17,20,23,26,29,32-undecone] (cyclo(A[dA][NMeL]L[NMeV][MeBmt]T[Sar][NMeThr(3ξ)](tBu)L[NMeL])) stands under 0.5 µg/mL.

The test system of the next experiment is Human Immunodeficiency Virus Type 1 (HIV-1). Particulars: M. Thali et al., Nature 372, 363-365 (1994); cited from earlier work.
As to Cyclosporin A, the anti-HIV activity entry was “anti-HIV activity”.
